{"source": "patent US20090175882A1", "about": "“METHODS AND COMPOSITIONS FOR TREATING HYPERALGESIA” (IRM LLC, priority 2006, published 2009)", "key": {"TRPV1": {"target": "T1, TRPV1 (Rattus norvegicus, UniProt O35433)", "T1 construct": "expressed in transfected cells; not restated for the selectivity test", "T1 sequence (O35433 whole entry)": "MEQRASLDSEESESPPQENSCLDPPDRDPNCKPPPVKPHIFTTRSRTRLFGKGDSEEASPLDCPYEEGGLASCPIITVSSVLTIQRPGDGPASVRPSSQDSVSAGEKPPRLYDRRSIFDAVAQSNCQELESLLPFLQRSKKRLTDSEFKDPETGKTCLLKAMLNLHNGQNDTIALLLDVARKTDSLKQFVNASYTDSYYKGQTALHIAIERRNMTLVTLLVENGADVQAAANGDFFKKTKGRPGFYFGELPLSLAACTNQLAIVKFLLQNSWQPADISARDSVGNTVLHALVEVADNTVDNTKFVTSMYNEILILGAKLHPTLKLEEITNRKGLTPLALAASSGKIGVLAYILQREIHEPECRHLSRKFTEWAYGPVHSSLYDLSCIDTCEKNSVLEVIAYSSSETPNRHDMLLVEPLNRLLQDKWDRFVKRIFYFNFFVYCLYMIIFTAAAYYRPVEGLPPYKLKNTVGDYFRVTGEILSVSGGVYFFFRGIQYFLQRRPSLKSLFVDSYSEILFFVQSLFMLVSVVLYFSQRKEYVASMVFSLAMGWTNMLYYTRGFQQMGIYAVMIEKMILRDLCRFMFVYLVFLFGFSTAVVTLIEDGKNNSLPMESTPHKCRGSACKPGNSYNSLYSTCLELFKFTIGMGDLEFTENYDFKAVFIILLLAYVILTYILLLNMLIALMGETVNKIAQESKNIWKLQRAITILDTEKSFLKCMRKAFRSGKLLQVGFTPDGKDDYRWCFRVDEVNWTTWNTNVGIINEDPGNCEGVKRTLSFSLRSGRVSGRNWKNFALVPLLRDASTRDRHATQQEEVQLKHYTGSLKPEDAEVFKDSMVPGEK", "experiment": "ThermoTRP selectivity test", "assay_type": "cell-based", "conditions": "at 50 μM (data not shown)"}, "TRPV4": {"target": "T2, TRPV4 (Rattus norvegicus, UniProt Q9ERZ8)", "T2 construct": "expressed in transfected cells; not restated for the selectivity test", "T2 sequence (Q9ERZ8 whole entry)": "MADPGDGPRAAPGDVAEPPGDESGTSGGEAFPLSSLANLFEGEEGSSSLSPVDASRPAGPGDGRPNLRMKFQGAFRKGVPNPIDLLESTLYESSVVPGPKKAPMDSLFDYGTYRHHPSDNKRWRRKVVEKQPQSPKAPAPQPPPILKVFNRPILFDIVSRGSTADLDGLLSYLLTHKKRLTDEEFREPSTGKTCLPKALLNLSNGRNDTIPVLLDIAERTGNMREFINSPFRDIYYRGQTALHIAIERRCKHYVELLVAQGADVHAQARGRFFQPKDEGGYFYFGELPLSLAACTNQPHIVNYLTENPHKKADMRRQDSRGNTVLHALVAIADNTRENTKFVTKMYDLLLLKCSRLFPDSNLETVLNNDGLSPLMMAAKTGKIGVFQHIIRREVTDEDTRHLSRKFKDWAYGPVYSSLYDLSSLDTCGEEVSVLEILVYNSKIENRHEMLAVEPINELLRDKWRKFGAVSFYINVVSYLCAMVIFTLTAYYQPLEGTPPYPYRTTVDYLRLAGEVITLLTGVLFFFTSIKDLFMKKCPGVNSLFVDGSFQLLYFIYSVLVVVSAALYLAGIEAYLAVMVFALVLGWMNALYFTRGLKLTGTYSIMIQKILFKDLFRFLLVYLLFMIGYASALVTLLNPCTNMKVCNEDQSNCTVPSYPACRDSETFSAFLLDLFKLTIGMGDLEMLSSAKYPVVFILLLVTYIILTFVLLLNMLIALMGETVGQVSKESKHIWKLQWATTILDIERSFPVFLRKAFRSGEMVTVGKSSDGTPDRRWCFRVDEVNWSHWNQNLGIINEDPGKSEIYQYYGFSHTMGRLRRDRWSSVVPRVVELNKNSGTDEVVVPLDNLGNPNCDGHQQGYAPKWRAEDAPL", "experiment": "ThermoTRP selectivity test", "assay_type": "cell-based", "conditions": "at 50 μM (data not shown)"}, "[1]": {"test_system": "bradykinin (BK)-induced heat hyperalgesia", "experiment": "Bradykinin-induced heat hyperalgesia", "assay_type": "in vivo", "conditions": "mice"}, "[2]": {"test_system": "CFA-induced heat hyperalgesia", "experiment": "CFA-induced heat hyperalgesia", "assay_type": "in vivo", "conditions": "mice"}, "[3]": {"test_system": "CFA-induced mechanical hyperalgesia", "experiment": "CFA-induced mechanical hyperalgesia (Von Frey threshold)", "assay_type": "in vivo", "conditions": "injected into hindpaw 24 hours after CFA, mice"}, "TRPM8": {"target": "T3, TRPM8 (Mus musculus, UniProt Q8R4D5)", "T3 construct": "expressed in transfected cells; not restated for the selectivity test", "T3 sequence (Q8R4D5 whole entry)": "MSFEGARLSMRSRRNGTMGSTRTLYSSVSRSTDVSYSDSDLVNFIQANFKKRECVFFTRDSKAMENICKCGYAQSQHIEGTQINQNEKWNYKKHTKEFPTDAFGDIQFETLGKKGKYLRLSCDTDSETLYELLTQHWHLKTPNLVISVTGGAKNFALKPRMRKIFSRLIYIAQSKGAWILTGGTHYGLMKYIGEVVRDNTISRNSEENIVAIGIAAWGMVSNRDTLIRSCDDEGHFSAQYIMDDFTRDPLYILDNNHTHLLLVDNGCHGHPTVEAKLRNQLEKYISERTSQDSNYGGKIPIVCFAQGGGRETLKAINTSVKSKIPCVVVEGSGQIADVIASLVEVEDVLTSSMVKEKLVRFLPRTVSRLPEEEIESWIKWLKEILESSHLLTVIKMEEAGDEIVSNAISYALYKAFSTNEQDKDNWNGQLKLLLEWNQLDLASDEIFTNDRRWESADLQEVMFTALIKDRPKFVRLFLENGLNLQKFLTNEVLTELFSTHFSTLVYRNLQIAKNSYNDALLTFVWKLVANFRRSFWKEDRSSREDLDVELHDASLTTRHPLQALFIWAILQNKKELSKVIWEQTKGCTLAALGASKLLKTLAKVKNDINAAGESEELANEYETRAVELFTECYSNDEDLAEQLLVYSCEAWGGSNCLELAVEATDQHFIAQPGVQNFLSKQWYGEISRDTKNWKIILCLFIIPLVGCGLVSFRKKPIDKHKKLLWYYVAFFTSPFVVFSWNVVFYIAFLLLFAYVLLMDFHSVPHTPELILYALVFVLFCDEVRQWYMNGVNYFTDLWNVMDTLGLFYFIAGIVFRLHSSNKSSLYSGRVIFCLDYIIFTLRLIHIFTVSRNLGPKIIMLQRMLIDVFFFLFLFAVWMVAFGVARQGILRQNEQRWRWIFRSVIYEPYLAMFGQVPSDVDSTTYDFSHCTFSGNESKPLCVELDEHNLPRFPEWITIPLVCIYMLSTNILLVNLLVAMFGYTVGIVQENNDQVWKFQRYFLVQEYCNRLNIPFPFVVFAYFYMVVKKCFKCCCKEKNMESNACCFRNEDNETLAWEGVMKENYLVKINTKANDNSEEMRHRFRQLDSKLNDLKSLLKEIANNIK", "experiment": "ThermoTRP selectivity test", "assay_type": "cell-based", "conditions": "at 50 μM (data not shown)"}, "TRPA1 [4]": {"target": "T4, TRPA1 (Homo sapiens, UniProt O75762)", "experiment": "Cinnamaldehyde-induced currents in inside-out excised patches of Xenopus oocytes", "assay_type": "cell-based", "set-up": "expressed in transfected cells; host or cells: Xenopus oocytes injected with cRNA (pOX vector)", "conditions": "coapplication with cinnamaldehyde, inside-out macropatches"}, "[5]": {"test_system": "acute heat or pressure to the paw", "experiment": "Nociceptive responses to acute heat or pressure to the paw", "assay_type": "in vivo", "conditions": "data not shown"}, "[6]": {"test_system": "CFA-induced cold hyperalgesia", "experiment": "CFA-induced cold hyperalgesia on a 5° C. plate", "assay_type": "in vivo", "conditions": "rats"}, "[7]": {"test_system": "BK-induced nociceptive mechanical behaviours", "experiment": "Bradykinin-induced mechanical hyperalgesia (Von Frey threshold)", "assay_type": "in vivo", "conditions": "short term hyperalgesia model, 1 mM coinjected, mice"}, "TRPV3": {"target": "T5, TRPV3 (Mus musculus, UniProt Q8K424)", "T5 construct": "expressed in transfected cells; not restated for the selectivity test", "T5 sequence (Q8K424 1-791)": "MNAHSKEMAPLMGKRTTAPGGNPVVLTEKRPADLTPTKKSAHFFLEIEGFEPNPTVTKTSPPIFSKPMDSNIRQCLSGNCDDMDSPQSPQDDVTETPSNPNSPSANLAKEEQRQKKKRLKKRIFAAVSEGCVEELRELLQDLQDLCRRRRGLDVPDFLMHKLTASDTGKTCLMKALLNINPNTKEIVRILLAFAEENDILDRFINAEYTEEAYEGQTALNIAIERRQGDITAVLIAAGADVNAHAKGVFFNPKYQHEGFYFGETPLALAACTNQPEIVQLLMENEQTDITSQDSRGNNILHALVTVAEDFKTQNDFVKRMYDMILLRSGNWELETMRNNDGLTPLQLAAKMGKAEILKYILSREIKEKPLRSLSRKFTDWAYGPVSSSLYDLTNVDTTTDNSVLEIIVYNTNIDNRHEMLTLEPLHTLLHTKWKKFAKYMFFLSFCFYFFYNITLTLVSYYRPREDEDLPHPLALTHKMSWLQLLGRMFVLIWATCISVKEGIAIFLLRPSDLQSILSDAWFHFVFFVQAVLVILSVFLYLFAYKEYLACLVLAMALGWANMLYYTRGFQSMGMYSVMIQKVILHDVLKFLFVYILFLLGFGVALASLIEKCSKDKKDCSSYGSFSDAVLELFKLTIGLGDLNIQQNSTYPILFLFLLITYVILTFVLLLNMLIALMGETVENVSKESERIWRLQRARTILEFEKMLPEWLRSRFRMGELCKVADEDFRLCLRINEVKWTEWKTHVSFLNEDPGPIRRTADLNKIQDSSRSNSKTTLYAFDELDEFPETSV", "experiment": "ThermoTRP selectivity test", "assay_type": "cell-based", "conditions": "at 50 μM (data not shown)"}, "TRPA1 [8]": {"target": "T4, TRPA1", "experiment": "TRPA1 block, test not specified", "conditions": "summary statement"}, "rat TRPA1": {"target": "rat TRPA1 (Rattus norvegicus, UniProt Q6RI86)", "sequence (Q6RI86 whole entry)": "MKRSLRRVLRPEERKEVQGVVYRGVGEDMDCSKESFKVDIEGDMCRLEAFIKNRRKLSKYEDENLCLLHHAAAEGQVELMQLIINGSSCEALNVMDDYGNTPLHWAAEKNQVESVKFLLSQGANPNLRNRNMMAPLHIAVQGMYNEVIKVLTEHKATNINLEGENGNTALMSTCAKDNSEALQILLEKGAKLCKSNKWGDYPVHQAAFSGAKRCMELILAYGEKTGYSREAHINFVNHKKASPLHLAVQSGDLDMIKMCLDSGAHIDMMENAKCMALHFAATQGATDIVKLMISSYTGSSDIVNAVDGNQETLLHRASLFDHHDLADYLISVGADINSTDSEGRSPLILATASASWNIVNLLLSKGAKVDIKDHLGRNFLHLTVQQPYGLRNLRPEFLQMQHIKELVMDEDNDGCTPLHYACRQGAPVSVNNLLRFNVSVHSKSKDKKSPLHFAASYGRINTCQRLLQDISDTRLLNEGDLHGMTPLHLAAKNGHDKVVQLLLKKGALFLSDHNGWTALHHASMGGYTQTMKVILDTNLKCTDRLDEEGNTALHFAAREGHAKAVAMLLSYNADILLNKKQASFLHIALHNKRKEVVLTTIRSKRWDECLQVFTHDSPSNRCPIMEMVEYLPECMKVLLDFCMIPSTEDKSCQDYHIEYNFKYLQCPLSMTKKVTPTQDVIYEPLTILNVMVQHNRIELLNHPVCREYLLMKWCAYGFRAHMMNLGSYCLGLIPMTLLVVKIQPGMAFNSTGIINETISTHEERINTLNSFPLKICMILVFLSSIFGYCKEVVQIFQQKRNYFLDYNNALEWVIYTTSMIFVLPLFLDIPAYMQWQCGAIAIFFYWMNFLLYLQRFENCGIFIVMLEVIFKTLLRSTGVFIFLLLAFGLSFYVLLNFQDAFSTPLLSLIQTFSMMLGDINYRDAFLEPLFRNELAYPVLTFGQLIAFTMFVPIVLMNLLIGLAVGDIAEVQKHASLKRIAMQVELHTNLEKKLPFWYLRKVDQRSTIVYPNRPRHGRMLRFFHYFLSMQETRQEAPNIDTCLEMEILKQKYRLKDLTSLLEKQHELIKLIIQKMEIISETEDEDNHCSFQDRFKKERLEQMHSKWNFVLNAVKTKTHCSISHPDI", "experiment": "Block of rat TRPA1 (data not shown)", "assay_type": "cell-based"}, "mouse TRPA1": {"target": "T6, mouse TRPA1 (Mus musculus, UniProt Q8BLA8)", "T6 construct": "expressed in transfected cells; host or cells: CHO cells (tetracycline-induced for PatchXpress; mTRPA1-pcDNA5 named for the transient labelling experiment)", "T6 sequence (Q8BLA8 whole entry)": "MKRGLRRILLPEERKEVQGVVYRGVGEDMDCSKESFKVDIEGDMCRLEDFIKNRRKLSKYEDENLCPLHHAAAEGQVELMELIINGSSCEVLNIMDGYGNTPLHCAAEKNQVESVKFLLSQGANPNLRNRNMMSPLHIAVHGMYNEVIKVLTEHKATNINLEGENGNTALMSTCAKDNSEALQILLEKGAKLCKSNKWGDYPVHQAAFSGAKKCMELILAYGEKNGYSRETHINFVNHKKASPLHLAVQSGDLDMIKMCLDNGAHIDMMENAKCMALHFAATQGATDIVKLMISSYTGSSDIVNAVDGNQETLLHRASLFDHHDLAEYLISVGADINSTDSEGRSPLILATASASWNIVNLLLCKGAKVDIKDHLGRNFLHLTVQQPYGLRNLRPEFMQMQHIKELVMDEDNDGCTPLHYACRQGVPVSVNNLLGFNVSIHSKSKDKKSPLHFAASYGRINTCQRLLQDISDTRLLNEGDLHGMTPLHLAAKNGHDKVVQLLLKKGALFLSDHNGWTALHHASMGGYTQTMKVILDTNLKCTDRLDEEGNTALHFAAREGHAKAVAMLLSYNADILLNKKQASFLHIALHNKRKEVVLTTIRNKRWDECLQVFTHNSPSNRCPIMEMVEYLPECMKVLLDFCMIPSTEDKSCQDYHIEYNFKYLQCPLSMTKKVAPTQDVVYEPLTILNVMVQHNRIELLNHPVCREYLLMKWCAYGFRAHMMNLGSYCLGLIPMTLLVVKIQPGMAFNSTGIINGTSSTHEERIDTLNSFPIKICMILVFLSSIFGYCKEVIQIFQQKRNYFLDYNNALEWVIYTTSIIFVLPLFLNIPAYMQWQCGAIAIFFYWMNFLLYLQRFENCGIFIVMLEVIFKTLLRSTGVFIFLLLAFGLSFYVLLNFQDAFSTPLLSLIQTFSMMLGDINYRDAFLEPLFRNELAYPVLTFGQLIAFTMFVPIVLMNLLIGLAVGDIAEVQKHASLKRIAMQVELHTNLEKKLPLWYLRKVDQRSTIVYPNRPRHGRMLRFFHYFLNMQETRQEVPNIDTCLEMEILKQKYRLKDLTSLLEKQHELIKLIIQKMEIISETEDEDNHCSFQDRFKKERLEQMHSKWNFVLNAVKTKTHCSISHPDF", "experiment": "FLIPR calcium-influx assay, block of cinnamaldehyde activation, CHO cells", "assay_type": "cell-based", "conditions": "elicited by 50 μM cinnamaldehyde, CHO cells"}}, "note": "Entries after “also recorded” stand apart in the source; their conditions may differ.", "data": [{"smiles": "CC(=Cc1ccc(Cl)cc1)C(C)=NO", "note": "[Compound 18, (Z)-4-(4-chlorophynyl)-3-methylbut-3-en-2-oxime]", "values": [{"measurement": "block of TRPV1", "setting": "TRPV1", "result": "did not block"}, {"measurement": "block of TRPV4", "setting": "TRPV4", "result": "did not block"}, {"measurement": "BK-induced heat hyperalgesia", "setting": "[1]", "result": "not thermal (heat) behaviours; also recorded: did not block"}, {"measurement": "CFA-induced heat hyperalgesia", "setting": "[2]", "result": "not thermal (heat) behaviours; also recorded: did not block"}, {"measurement": "CFA-induced mechanical hyperalgesia", "setting": "[3]", "result": "reverses; also recorded: relieved"}, {"measurement": "block of TRPM8", "setting": "TRPM8", "result": "did not block"}, {"measurement": "block of cinnamaldehyde-induced TRPA1 currents in excised patches", "setting": "TRPA1 [4]", "result": "suppressed; also recorded: blocked"}, {"measurement": "nociceptive responses to acute heat to the paw", "setting": "[5]", "result": "not affected"}, {"measurement": "nociceptive responses to acute pressure to the paw", "setting": "[5]", "result": "not affected"}, {"measurement": "CFA-induced cold hyperalgesia (flicks, licks, paw raises for 10 min)", "setting": "[6]", "result": "reverses cold behaviours; also recorded: robust block"}, {"measurement": "BK-induced mechanical nociceptive behavior", "setting": "[7]", "result": "reverses"}, {"measurement": "block of TRPV3", "setting": "TRPV3", "result": "did not block"}, {"measurement": "inhibition of TRPA1 activation or function", "setting": "TRPA1 [8]", "result": "specifically inhibit TRPA1 activation or function"}, {"measurement": "block of rat TRPA1", "setting": "rat TRPA1", "result": "blocked"}, {"measurement": "IC50", "setting": "mouse TRPA1", "result": 4.5, "unit": "µM"}]}]}
